“And” between values parts separate entries of the source, which are not always exact repeats. Equal values may be shown once. Inconclusive results and toxic doses are left out.
Test system: P388 leukemia ip, CD2F1 mice, survival T/C
Assay: NCI In Vivo Anticancer Drug Screen. Data for tumor model P388 Leukemia (intraperitoneal) in CD2F1 (CDF1) mice
Conditions: endpoint: median survival time, higher = longer survival
Method in brief: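 Mice carrying the transplanted tumor received test compound or vehicle. Survival was recorded in each group, and the value is the treated-group measurement divided by that of the vehicle-treated control group.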

[1] = dose: 25.0 mg/kg/injection, schedule: Q01DX009 (ip), vehicle: saline
[2] = dose: 50.0 mg/kg/injection, schedule: Q01DX009 (ip), vehicle: saline
[3] = dose: 100.0 mg/kg/injection, schedule: Q01DX009 (ip), vehicle: saline
[4] = dose: 200.0 mg/kg/injection, schedule: Q01DX009 (ip), vehicle: saline
[5] = dose: 50.0 mg/kg/injection, schedule: Q01DX009 (ip), vehicle: saline with Tween-80
[6] = dose: 100.0 mg/kg/injection, schedule: Q01DX009 (ip), vehicle: saline with Tween-80
[7] = dose: 200.0 mg/kg/injection, schedule: Q01DX009 (ip), vehicle: saline with Tween-80
[8] = dose: 6.25 mg/kg/injection, schedule: Q01DX009 (ip), vehicle: saline with Tween-80
[9] = dose: 12.5 mg/kg/injection, schedule: Q01DX009 (ip), vehicle: saline with Tween-80
[10] = dose: 25.0 mg/kg/injection, schedule: Q01DX009 (ip), vehicle: saline with Tween-80
[11] = dose: 50.0 mg/kg/injection, schedule: Q01DX005 (ip), vehicle: Klucel (hydroxypropylcellulose) (HPC)
[12] = dose: 100.0 mg/kg/injection, schedule: Q01DX005 (ip), vehicle: Klucel (hydroxypropylcellulose) (HPC)
[13] = dose: 200.0 mg/kg/injection, schedule: Q01DX005 (ip), vehicle: Klucel (hydroxypropylcellulose) (HPC)
[14] = dose: 50.0 mg/kg/injection, schedule: Q01DX005 (ip), vehicle: saline with Tween-80
[15] = dose: 100.0 mg/kg/injection, schedule: Q01DX005 (ip), vehicle: saline with Tween-80
[16] = dose: 200.0 mg/kg/injection, schedule: Q01DX005 (ip), vehicle: saline with Tween-80
[17] = dose: 6.25 mg/kg/injection, schedule: Q01DX009 (ip), vehicle: water
[18] = dose: 12.5 mg/kg/injection, schedule: Q01DX009 (ip), vehicle: water
[19] = dose: 25.0 mg/kg/injection, schedule: Q01DX009 (ip), vehicle: water
[20] = dose: 50.0 mg/kg/injection, schedule: Q01DX009 (ip), vehicle: water
[21] = dose: 100.0 mg/kg/injection, schedule: Q01DX009 (ip), vehicle: water
[22] = dose: 100.0 mg/kg/injection, schedule: Q04DX003 (ip), vehicle: saline

With CCOC(=O)CN(C=O)C(C)c1ccccc1 (centres undefined) the T/C [1] was 114 % of control, the T/C [2] was 99 % of control and the T/C [3] was 98 % of control. For the same molecule, the T/C [4] was 99 % of control.
For Cc1cc(Cl)ccc1S(=O)(=O)F, the T/C [5] was 113 % of control, the T/C [6] was 113 % of control and the T/C [7] was 98 % of control.
For COC1=NC=CC=CC1, the T/C [8] was 103 % of control, the T/C [9] was 111 % of control and the T/C [10] was 107 % of control.
For O=c1[nH]ccc2sccc12, the T/C [5] was 95 % of control and the T/C [6] was 100 % of control.
In the case of CN=C(N)N/N=C(C)/C(C)=C/c1ccccc1, the T/C (dose: 25.0 mg/kg/injection, schedule: Q04DX002 (ip), vehicle: saline with Tween-80) is reported as 104 % of control.
CC1(Br)CN([C@@H](C(=O)O)c2ccccc2)C1=O (some centres undefined) was tested, and the T/C (dose: 50.0 mg/kg/injection, schedule: Q04DX002 (ip), vehicle: saline with Tween-80) was 102 % of control, the T/C (dose: 100.0 mg/kg/injection, schedule: Q04DX002 (ip), vehicle: saline with Tween-80) was 96 % of control and the T/C (dose: 200.0 mg/kg/injection, schedule: Q04DX002 (ip), vehicle: saline with Tween-80) was 93 % of control. The T/C (dose: 400.0 mg/kg/injection, schedule: Q04DX002 (ip), vehicle: saline with Tween-80) was 102 % of control.
For Nc1ccc(S(=O)(=O)Nc2cnc3c(Cl)cccc3n2)cc1, the T/C (dose: 50.0 mg/kg/injection, schedule: Q01DX005 (ip), vehicle: DMSO) was 98 % of control and 99 % of control, the T/C [11] was 108 % of control and the T/C (dose: 100.0 mg/kg/injection, schedule: Q01DX005 (ip), vehicle: DMSO) was 108 % of control and 116 % of control. The T/C [12] was 106 % of control, the T/C (dose: 200.0 mg/kg/injection, schedule: Q01DX005 (ip), vehicle: DMSO) was 121 % of control and the T/C [13] was 111 % of control. The T/C (dose: 400.0 mg/kg/injection, schedule: Q01DX005 (ip), vehicle: DMSO) was 120 % of control.
With Cc1nnc(N)c(C#N)c1C the T/C (dose: 50.0 mg/kg/injection, schedule: Q01DX005 (ip), vehicle: saline) was 95 % of control, the T/C (dose: 100.0 mg/kg/injection, schedule: Q01DX005 (ip), vehicle: saline) was 104 % of control and the T/C (dose: 200.0 mg/kg/injection, schedule: Q01DX005 (ip), vehicle: saline) was 93 % of control.
With CC(=O)SC1CC(=O)OC1=O (centres undefined) the T/C [1] was 100 % of control, the T/C [2] was 105 % of control and the T/C [3] was 96 % of control. For the same molecule, the T/C [4] was 105 % of control.
In the case of CC(O)c1nc2ccccc2nc1C(=O)Nc1ccccc1N (centres undefined), the T/C [14] is reported as 101 % of control, the T/C [15] is reported as 88 % of control and the T/C [16] is reported as 92 % of control.
With CC(=Nc1ccc(S(=O)(=O)c2ccc(N=C(C)N3CCCCC3)cc2)cc1)N1CCCCC1 the T/C [14] was 100 % of control, the T/C [15] was 97 % of control and the T/C [16] was 88 % of control.
For CCCOC(=O)/C=C(\Br)C(=O)OCCC, the T/C [8] was 113 % of control, the T/C [9] was 116 % of control and 117 % of control and the T/C [10] was 103 % of control.
For NCC1OC(n2cnc3c(N)ncnc32)C(O)C1O (centres undefined), the T/C [17] was 100 % of control, the T/C [18] was 100 % of control and the T/C [19] was 98 % of control. For the same molecule, the T/C [20] was 107 % of control and the T/C [21] was 117 % of control.
For CC(Sc1ccccc1)C(=O)N1CCCC1 (centres undefined), the T/C [5] was 106 % of control, the T/C [6] was 103 % of control and the T/C [7] was 105 % of control.
In the case of CN(C)c1nc2ccccn2c1C(=O)c1ccccc1, the T/C (dose: 100.0 mg/kg/injection, schedule: Q04DX003 (ip), vehicle: Klucel (hydroxypropylcellulose) (HPC)) is reported as 103 % of control, the T/C (dose: 200.0 mg/kg/injection, schedule: Q04DX003 (ip), vehicle: Klucel (hydroxypropylcellulose) (HPC)) is reported as 100 % of control and the T/C (dose: 400.0 mg/kg/injection, schedule: Q04DX003 (ip), vehicle: Klucel (hydroxypropylcellulose) (HPC)) is reported as 103 % of control.
CC1(C)OC2C(COC(=O)c3ccc([N+](=O)[O-])cc3)OC(NC(=O)N(CCCl)N=O)C2O1 (centres undefined) was tested, and the T/C (dose: 0.09 mg/kg/injection, schedule: Q01DX009 (ip), vehicle: saline with Tween-80) was 119 % of control, the T/C (dose: 0.19 mg/kg/injection, schedule: Q01DX009 (ip), vehicle: saline with Tween-80) was 119 % of control and the T/C (dose: 0.39 mg/kg/injection, schedule: Q01DX009 (ip), vehicle: saline with Tween-80) was 119 % of control. The T/C (dose: 1.56 mg/kg/injection, schedule: Q01DX009 (ip), vehicle: saline with Tween-80) was 153 % of control, the T/C (dose: 3.12 mg/kg/injection, schedule: Q01DX009 (ip), vehicle: saline with Tween-80) was 174 % of control and the T/C [9] was 202 % of control. The T/C [10] was 272 % of control, the T/C [5] was 282 % of control and the T/C [6] was 154 % of control. The T/C [7] was 109 % of control.
With CC1=C(C)[CH2][Ge]([CH3])([CH3])[CH2]1 the T/C (dose: 60.0 mg/kg/injection, schedule: Q01DX005 (ip), vehicle: saline) was 98 % of control, the T/C (dose: 120.0 mg/kg/injection, schedule: Q01DX005 (ip), vehicle: saline) was 104 % of control and the T/C (dose: 240.0 mg/kg/injection, schedule: Q01DX005 (ip), vehicle: saline) was 97 % of control.
In the case of CCC[CH2][Sn]([N]=C=S)([N]=C=S)[N]=C=S.O=P(c1ccccc1)(c1ccccc1)c1ccccc1.O=P(c1ccccc1)(c1ccccc1)c1ccccc1, the T/C [22] is reported as 98 % of control, the T/C (dose: 200.0 mg/kg/injection, schedule: Q04DX003 (ip), vehicle: saline) is reported as 100 % of control and the T/C (dose: 400.0 mg/kg/injection, schedule: Q04DX003 (ip), vehicle: saline) is reported as 99 % of control.
With BrC/C(=N\N=C(\CBr)c1ccc(Br)cc1)c1ccc(Br)cc1 the T/C (dose: 50.0 mg/kg/injection, schedule: Q01DX009 (ip), vehicle: Klucel (hydroxypropylcellulose) (HPC)) was 100 % of control, the T/C (dose: 100.0 mg/kg/injection, schedule: Q01DX009 (ip), vehicle: Klucel (hydroxypropylcellulose) (HPC)) was 100 % of control and the T/C (dose: 200.0 mg/kg/injection, schedule: Q01DX009 (ip), vehicle: Klucel (hydroxypropylcellulose) (HPC)) was 91 % of control.
In the case of CN(C)CCCC#N, the T/C (dose: 25.0 mg/kg/injection, schedule: Q04DX003 (ip), vehicle: saline) is reported as 100 % of control, the T/C (dose: 50.0 mg/kg/injection, schedule: Q04DX003 (ip), vehicle: saline) is reported as 100 % of control and the T/C [22] is reported as 100 % of control.
With O=NNc1ncc([N+](=O)[O-])s1 the T/C (dose: 3.12 mg/kg/injection, schedule: Q01DX009 (ip), vehicle: water) was 103 % of control, the T/C [17] was 97 % of control and the T/C [18] was 94 % of control. For the same molecule, the T/C [19] was 100 % of control and 96 % of control, the T/C [20] was 100 % of control and 97 % of control and the T/C [21] was 101 % of control. The T/C (dose: 200.0 mg/kg/injection, schedule: Q01DX009 (ip), vehicle: water) was 105 % of control.
With CN(CC(O)C(O)CN(C)N=O)N=O (centres undefined) the T/C (dose: 100.0 mg/kg/injection, schedule: Q01DX001 (ip), vehicle: Klucel (hydroxypropylcellulose) (HPC)) was 88 % of control, the T/C (dose: 200.0 mg/kg/injection, schedule: Q01DX001 (ip), vehicle: Klucel (hydroxypropylcellulose) (HPC)) was 94 % of control and the T/C (dose: 400.0 mg/kg/injection, schedule: Q01DX001 (ip), vehicle: Klucel (hydroxypropylcellulose) (HPC)) was 100 % of control.
With O=C(Nc1ccc(C(=O)O)cc1)Oc1ccc(N(CCCl)CCCl)cc1 the T/C [10] was 209 % of control, the T/C [5] was 159 % of control and the T/C (dose: 66.0 mg/kg/injection, schedule: Q04DX003 (ip), vehicle: saline with Tween-80) was 200 % of control. For the same molecule, the T/C (dose: 100.0 mg/kg/injection, schedule: Q04DX003 (ip), vehicle: saline with Tween-80) was 181 % of control and 200 % of control.
With COc1cc(=O)cc2n(-c3cc(OC)c(O)c(OC)c3)c3ccccc3nc1-2 the T/C (dose: 12.5 mg/kg/injection, schedule: Q01DX009 (ip), vehicle: saline) was 100 % of control, the T/C [1] was 104 % of control and the T/C [2] was 102 % of control and 88 % of control. For the same molecule, the T/C [4] was 98 % of control.
With CNC(=O)c1ccccc1C(=O)c1ccccc1OC the T/C [11] was 104 % of control, the T/C [12] was 99 % of control and the T/C [13] was 97 % of control.
